# Experimental data published in ChEMBL document CHEMBL1201862, “PubChem BioAssay data set” (2004).
# Calls of active or inactive are those of the source.
# What was measured:
# [1] = target: ADP-ribosylation factor GTPase-activating protein 1 (Rattus norvegicus, UniProt Q62848); test: Fluorescence polarization-based biochemical high throughput dose response screening assay to identify inhibitors of ADP-ribosylation factor GTPase activating protein 1 (ARFGAP1).; assay type: functional
# [2] = target: Luciferin 4-monooxygenase (Photinus pyralis, UniProt P08659); test: Counter Screen for Luciferase-based Assay Positives. [Related pubchem assays: 620, 618, 411 ]
# Chain of Luciferin 4-monooxygenase (P08659 whole entry): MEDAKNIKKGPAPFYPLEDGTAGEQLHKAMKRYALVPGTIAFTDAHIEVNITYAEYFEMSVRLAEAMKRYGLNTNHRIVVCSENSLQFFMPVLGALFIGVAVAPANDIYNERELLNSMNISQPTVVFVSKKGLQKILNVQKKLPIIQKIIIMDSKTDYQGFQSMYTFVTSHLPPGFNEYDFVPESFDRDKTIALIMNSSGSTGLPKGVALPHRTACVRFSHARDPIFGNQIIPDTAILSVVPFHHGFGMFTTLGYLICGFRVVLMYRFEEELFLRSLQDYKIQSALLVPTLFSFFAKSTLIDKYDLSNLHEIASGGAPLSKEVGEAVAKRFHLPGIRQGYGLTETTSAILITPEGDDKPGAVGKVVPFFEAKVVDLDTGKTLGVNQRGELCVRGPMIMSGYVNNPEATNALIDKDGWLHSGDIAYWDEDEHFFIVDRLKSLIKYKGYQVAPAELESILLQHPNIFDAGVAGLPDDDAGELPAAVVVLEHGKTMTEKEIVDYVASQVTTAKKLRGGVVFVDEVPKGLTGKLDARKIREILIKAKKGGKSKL
# [3] = test system: HT-1080; test: HT1080 cell viability loss – fluorescence readout (AID 620); assay type: functional, cell-based; conditions: Homo sapiens
# [4] = cells; assay type: functional, cell-based
# [5] = target: T1, Nuclear receptor subfamily 0 group B member 1 (Homo sapiens, UniProt P51843); assay type: functional, cell-based;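 also: HEK293T cells transfected with SF-1 and DAX-1 plus StAR promoter luciferase reporter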
# T1 sequence (P51843 whole entry): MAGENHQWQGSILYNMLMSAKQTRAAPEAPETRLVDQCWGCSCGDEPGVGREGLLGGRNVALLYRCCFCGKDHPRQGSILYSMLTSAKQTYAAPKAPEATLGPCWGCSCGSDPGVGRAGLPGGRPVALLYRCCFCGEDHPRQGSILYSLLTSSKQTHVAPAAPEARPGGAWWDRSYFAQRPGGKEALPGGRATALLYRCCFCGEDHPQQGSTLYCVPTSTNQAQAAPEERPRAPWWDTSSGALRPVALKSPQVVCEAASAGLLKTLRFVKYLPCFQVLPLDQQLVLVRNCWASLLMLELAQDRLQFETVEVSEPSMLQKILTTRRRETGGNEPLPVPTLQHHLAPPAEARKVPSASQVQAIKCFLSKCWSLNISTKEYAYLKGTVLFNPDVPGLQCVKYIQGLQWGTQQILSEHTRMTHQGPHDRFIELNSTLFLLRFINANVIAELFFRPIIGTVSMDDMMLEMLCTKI
# [6] = A549 cell cytotoxicity, dose response, cytotoxicity control, plate reader, cherry-pick, antagonist series (AID 743412); assay type: functional, cell-based
# [7] = toxicity toward HepG2 liver cells – cell-based, plate reader, cherry-pick, antagonist series, cytotoxicity control, dose response (AID 743416); assay type: functional
# [8] = blockers of bursicon-stimulated LGR2 cAMP reporter – cell-based, HEK293, CRE-luciferase reporter, cherry pick, set 2, dose response (AID 743343); assay type: functional;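 also: transfected cells were stimulated with diluted bursicon conditioned medium after compound addition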
# [9] = blockade of melanocortin 4 receptor signaling – cell-based, plate reader, cherry pick, counter-screen for LGR2 antagonist project, dose response (AID 743444); assay type: functional;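 also: transfected HEK 293 cells stimulated with alpha-MSH peptide; potency of inhibitors of the alpha-MSH evoked signal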
# [10] = target: Eukaryotic translation initiation factor 4H (Homo sapiens, UniProt Q15056); test: eIF4H binding inhibition – biochemical, uHTS, fluorescence polarization, translation initiation inhibitor project, primary screen (AID 2012)
# [11] = target: Polyadenylate-binding protein 1 (Homo sapiens, UniProt P11940); test: blockers of PABP interaction with poly(A) – biochemical, fluorescence polarization, […] (AID 2014)
# Chain of Polyadenylate-binding protein 1 (P11940 whole entry, the tested form may be a part): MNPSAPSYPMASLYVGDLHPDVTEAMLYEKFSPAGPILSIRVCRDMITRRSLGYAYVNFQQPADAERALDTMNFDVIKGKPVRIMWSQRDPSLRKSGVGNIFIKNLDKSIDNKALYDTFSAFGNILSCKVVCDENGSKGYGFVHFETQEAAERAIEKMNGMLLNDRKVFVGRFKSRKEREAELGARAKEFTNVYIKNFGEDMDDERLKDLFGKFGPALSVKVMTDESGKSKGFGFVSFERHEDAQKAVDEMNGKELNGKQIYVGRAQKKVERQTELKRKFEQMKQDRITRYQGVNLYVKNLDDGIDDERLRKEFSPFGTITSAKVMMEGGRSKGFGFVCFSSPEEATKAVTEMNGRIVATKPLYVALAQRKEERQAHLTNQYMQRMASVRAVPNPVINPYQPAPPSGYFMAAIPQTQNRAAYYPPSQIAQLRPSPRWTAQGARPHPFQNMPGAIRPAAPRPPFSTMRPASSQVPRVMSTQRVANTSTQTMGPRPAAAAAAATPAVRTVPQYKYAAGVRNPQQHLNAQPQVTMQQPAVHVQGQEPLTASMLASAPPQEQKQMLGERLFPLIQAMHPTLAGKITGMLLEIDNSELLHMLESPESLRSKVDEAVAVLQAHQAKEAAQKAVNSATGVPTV
# [12] = target: T2, Carboxy-terminal domain RNA polymerase II polypeptide A small phosphatase 1 (Homo sapiens, UniProt Q9GZU7); test: CTDSP1 inhibitors, concentration-response, biochemical, absorbance readout, ultra-high-throughput screen actives (AID 540297); assay type: functional
# T2 sequence (Q9GZU7 whole entry): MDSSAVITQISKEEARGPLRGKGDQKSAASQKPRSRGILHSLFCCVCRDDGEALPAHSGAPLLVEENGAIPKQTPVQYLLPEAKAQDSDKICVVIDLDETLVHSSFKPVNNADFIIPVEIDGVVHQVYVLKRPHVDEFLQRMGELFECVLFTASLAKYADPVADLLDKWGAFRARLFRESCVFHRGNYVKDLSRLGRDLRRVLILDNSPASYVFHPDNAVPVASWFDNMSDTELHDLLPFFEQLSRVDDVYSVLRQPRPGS
# [13] = target: T3, Tyrosine-protein phosphatase non-receptor type 11 (Homo sapiens, UniProt Q06124); test: PTPN11 enzyme inhibitors – biochemical, selectivity assay for STEP inhibitor project, dose response (AID 602367); assay type: functional; conditions: read-out: IC50_Mean
# T3 sequence (Q06124 whole entry): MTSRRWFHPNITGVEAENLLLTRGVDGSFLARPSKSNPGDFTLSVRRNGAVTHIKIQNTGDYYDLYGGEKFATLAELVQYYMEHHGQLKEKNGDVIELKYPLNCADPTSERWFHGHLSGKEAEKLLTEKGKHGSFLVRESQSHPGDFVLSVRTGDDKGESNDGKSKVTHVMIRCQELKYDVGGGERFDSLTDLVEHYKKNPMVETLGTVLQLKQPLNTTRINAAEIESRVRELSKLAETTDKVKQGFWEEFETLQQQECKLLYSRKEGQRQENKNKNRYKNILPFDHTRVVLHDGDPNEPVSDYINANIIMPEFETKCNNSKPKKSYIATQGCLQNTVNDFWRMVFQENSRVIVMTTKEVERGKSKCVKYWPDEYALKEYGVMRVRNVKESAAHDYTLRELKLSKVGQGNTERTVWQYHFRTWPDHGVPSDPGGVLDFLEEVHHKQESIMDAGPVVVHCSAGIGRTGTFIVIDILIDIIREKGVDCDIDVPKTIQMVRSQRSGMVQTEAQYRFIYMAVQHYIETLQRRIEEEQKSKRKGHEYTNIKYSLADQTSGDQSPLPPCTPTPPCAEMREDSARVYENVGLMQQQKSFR
# [14] = target: T4, Tyrosine-protein phosphatase non-receptor type 5 (Homo sapiens, UniProt P54829); test: PTPN5 enzyme inhibition – biochemical, fluorescence intensity, uHTS hits, confirmation (AID 602372); assay type: functional; conditions: read-out: IC50_Mean
# T4 sequence (P54829 whole entry): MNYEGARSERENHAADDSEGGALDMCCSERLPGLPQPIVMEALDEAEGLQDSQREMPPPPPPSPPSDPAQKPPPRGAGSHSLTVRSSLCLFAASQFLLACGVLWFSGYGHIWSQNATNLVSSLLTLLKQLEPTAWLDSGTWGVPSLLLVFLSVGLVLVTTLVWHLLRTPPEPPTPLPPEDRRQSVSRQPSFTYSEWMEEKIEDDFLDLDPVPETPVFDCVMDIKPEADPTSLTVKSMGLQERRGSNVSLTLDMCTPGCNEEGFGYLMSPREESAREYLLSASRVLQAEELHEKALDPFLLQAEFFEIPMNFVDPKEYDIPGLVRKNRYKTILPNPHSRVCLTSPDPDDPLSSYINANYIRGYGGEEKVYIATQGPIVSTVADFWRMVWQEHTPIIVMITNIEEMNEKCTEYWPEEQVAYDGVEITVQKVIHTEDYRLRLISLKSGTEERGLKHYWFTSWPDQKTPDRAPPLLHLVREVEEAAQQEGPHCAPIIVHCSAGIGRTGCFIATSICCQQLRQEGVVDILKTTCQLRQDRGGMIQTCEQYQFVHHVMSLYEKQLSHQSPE
# [15] = target: Dual specificity protein phosphatase 3 (Homo sapiens, UniProt P51452); test: VHR phosphatase inhibition, dose response, selectivity assay for STEP inhibitor project, biochemical (AID 602374); assay type: functional; conditions: read-out: IC50_Mean
# Chain of Dual specificity protein phosphatase 3 (P51452 whole entry): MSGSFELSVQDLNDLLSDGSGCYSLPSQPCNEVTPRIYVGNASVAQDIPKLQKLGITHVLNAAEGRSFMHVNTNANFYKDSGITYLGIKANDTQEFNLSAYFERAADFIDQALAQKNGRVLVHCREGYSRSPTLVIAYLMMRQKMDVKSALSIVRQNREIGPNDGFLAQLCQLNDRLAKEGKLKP
# [16] = target: T5, Small ubiquitin-related modifier 2 (Homo sapiens, UniProt P61956); test: disruption of SUMO2 interaction with SIM peptide – biochemical, fluorescence polarization, uHTS hits, selectivity assay for SUMO1 interaction inhibitor project, dose response (AID 624385); assay type: functional; conditions: read-out: IC50_Mean
# T5 sequence (P61956 whole entry): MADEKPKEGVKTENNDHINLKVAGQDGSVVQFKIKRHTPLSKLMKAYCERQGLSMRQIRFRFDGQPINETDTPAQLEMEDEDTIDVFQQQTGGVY
# [17] = target: T6, Small ubiquitin-related modifier 1 (Homo sapiens, UniProt P63165); test: SUMO1 protein interaction blockers, potency – biochemical, fluorescence polarization, uHTS hits, dose response (AID 624382); assay type: functional; conditions: read-out: IC50_Mean
# T6 sequence (P63165 whole entry): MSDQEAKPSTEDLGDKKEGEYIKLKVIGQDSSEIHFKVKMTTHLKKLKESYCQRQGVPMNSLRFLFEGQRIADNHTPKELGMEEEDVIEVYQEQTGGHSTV
# [18] = target: T5, Small ubiquitin-related modifier 2; test: SUMO2 binding disruption by SUMO1 hits – biochemical, FRET, human SUMO2, uHTS hits, selectivity assay for SUMO1 interaction inhibitor project, dose response (AID 624384); assay type: functional; conditions: read-out: IC50_Mean
# [19] = target: T6, Small ubiquitin-related modifier 1; test: SUMO1 protein-protein binding blockers, potency – biochemical, FRET, dose response (AID 624383); assay type: functional; conditions: read-out: IC50_Mean
# [20] = target: T7, Tyrosine-protein phosphatase non-receptor type 22 (Homo sapiens, UniProt Q9Y2R2); test: lymphoid phosphatase LYP inhibitors – biochemical, selectivity assay for STEP inhibitor project, dose response (AID 624241); assay type: functional
# T7 sequence (Q9Y2R2 whole entry): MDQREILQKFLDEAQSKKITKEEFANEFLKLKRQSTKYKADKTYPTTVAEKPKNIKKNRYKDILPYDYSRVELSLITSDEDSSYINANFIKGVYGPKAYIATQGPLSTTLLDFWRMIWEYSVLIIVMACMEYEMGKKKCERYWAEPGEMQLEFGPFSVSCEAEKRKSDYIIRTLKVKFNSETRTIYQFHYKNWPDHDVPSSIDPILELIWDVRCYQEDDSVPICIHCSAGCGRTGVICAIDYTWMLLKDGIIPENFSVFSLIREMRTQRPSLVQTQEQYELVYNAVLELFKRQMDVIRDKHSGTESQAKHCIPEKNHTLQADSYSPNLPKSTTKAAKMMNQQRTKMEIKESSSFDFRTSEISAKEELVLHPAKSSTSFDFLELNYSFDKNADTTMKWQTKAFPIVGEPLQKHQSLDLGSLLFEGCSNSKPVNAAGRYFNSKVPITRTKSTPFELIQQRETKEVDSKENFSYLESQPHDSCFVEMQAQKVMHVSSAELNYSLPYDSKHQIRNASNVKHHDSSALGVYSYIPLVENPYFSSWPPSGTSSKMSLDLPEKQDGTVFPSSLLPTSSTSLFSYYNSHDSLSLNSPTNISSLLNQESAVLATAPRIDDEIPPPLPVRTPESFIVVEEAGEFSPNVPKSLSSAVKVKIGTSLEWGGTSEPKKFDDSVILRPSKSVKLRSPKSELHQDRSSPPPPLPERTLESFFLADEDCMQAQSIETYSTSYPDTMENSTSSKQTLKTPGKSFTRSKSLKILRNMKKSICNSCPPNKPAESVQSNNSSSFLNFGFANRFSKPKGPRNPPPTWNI
# [21] = target: T8, Sentrin-specific protease 8 (Homo sapiens, UniProt Q96LD8); assay type: functional
# T8 sequence (Q96LD8 whole entry): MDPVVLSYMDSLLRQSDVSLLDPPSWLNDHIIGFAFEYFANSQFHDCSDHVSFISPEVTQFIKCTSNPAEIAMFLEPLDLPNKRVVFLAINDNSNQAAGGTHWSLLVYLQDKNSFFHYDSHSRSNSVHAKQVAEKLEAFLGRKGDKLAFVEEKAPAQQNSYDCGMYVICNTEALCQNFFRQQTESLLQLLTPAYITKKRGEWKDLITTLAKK
# [22] = target: T8, Sentrin-specific protease 8; assay type: functional; remark: listed apart in the source
# [23] = target: Fructose-bisphosphate aldolase (Mycobacterium tuberculosis, UniProt P9WQA3); test: Fluorescence-based biochemical high throughput dose response assay for inhibitors of the fructose-bisphosphate aldolase (FBA) of M. tuberculosis.; assay type: functional
# Chain of Fructose-bisphosphate aldolase (P9WQA3 whole entry): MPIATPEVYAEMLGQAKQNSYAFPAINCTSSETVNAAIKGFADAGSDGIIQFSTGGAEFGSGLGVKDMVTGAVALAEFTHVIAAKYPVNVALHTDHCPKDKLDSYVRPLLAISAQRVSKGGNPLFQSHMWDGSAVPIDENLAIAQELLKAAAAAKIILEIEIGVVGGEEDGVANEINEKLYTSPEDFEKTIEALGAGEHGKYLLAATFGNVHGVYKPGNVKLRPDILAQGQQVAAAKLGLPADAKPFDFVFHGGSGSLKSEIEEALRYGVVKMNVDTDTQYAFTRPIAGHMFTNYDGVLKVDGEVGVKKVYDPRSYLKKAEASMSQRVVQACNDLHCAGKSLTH
# Chain of ADP-ribosylation factor GTPase-activating protein 1 (Q62848 whole entry): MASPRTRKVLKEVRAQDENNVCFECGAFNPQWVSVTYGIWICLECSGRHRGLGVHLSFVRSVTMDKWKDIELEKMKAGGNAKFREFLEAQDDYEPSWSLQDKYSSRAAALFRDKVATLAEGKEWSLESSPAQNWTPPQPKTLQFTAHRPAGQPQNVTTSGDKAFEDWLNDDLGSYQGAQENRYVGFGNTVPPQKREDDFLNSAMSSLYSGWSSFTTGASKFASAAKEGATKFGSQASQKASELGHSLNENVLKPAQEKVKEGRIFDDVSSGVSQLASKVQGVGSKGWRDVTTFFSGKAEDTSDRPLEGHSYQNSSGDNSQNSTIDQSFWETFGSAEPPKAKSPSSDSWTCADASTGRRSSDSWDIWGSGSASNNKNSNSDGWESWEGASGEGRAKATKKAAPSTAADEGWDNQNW
smiles,measurement,setting,value
Cc1ccc(NC(=O)NNC(=O)COc2ccc([N+](=O)[O-])cc2)cc1C,IC50,[1],34.5 µM (inactive)
COc1ccc(C(=O)Nc2nnc(-c3ccco3)s2)cc1,EC50,[2],> 100 µM (not active)
same,EC50,[3],> 50 µM (not active)
same,IC50,[4],> 67.5 µM (inactive)
same,IC50,[5],> 67.5 µM (inactive)
same,AC50,[6],> 52 µM (inactive)
same,AC50,[7],> 52 µM (inactive)
same,AC50,[8],3.75 µM (active)
same,AC50,[9],3.67 µM (active)
O=C(Nc1cc([N+](=O)[O-])ccc1O)c1cccc(C(=O)Nc2cc([N+](=O)[O-])ccc2O)c1,IC50,[10],7.71 µM (active)
same,IC50,[11],8.96 µM (active)
same,IC50,[12],1.03 µM (active)
same,IC50,[13],0.456 µM (active)
same,IC50,[14],1.98 µM (active)
same,IC50,[15],0.509 µM (active)
same,IC50,[16],9.33 µM (active)
same,IC50,[17],0.751 µM (active)
same,IC50,[18],> 66 µM (inactive)
same,IC50,[19],53.8 µM (inactive)
same,IC50,[20],8.76 µM (active)
O=C(c1ccccc1)[C-](C(=O)c1ccc(Cl)cc1)[n+]1ccc2ccccc2c1,IC50,[21],> 100 µM (inactive)
same,IC50,[22],9.23 µM (active)
CCCc1cc(=O)oc2cc(OCc3ccc(C(=O)O)o3)ccc12,IC50,[23],2.44 µM (active)
